From US5668159A, “1,3,4-thiadiazoles and 1,3,4-oxadiazoles as IIb/IIIa antagonists” (The DuPont Merck Pharmaceutical Company, priority 1996, dated 1997)
Counter-ions that a name gives are not always drawn.

System: platelet aggregation (platelet rich plasma (PRP))
Assay: Platelet Aggregation Assay (inhibition of agonist-induced platelet aggregation in platelet rich plasma)
Assay type: cell-based
Conditions: with esterase, ester prodrugs preincubated with 100 IU/mL porcine liver esterase 2 hours at 37° C., human PRP, 100 μM ADP, read-out: Platelet Aggregation Assay IC50 (with esterase)
Protocol: Platelet Aggregation Assay: Venous blood was obtained from the arm of a healthy human donor who was drug-free and aspirin-free for at least two weeks prior to blood collection. Blood was collected into 10 mL citrated Vacutainer tubes. The blood was centrifuged for 15 minutes at 150× g at room temperature, and platelet-rich plasma (PRP) was removed. The remaining blood was centrifuged for 15 minutes at 1500× g at room temperature, and platelet-poor plasma (PPP) was removed. Samples were assayed on a aggregometer (PAP-4 Platelet Aggregation Profiler), using PPP as the blank (100% transmittance). 200 μL of PRP was added to each micro test tube, and transmittance was set to 0%. 20 μL of various agonists (ADP, collagen, arachidonate, epinephrine, thrombin) were added to each tube, and the aggregation profiles were plotted (% transmittance versus time). The results are expressed as % inhibition of agonist-inducedplatelet aggregation. For the IC50 evaluation, the test compounds were added at various concentrations prior to the activation of the platelets.
Ester prodrugs were preincubated (10^-3 M F.C.) with 100 IU/mL Porcine liver esterase (Sigma Chemical Co., St. Louis, Mo., #E-3128) for 2 hours at 37° C. Aliquots are then diluted in 0.1M Tris, p H 7.4, to the desired concentrations. Aliquots of 20 μl of the esterase pretreated prodrugs are added to 200 μl of human platelet rich plasma. Samples were placed in platelet profiler (aggregometer) for 8 minutes at 37° C., followed by the addition of 100 μM Adenosine Diphosphate, (Sigma Chemical Co., St. Louis, Mo., #A-6521), to induce platelet aggregation. Platelet aggregation was allowed to proceed for 5 minutes. Percent inhibition is calculated using percent aggregation in the presence of the test compound divided by percent aggregation of control, times 100. This value is subtracted from 100, yielding percent inhibition. Calculation of IC50 is performed on a Texas Instruments TI59 with an IC50 program.
Table A below sets forth the antiplatelet activity of representative compounds of the present invention. The indicated compounds were tested for their ability to inhibit platelet aggregation (using platelet rich plasma (PRP)). The IC50 value (the concentration of antagonist which inhibits platelet aggregation by 50% relative to a control lacking the antagonist) is shown. In Table A the IC50 values are expressed as: +++=IC50 of <10 μM; ++=IC50 of […]; +=IC50 of 50-100 μM (μM=micromolar).

## CCOC(=O)[C@H](Cc1ccccc1)NC(=O)CSc1nnc(-c2ccc(C(=N)N)cc2)o1 [Example 399, Ethyl N-[2-{2-(4-amidinophenyl)-1,3,4-oxadiazol-5-ylthio}-acetyl]-(S)-phenylalanine HCl salt]
  IC50: 10 to 50 µM

## CCCCOC(=O)NC[C@H](NC(=O)CSc1nnc(-c2ccc(C(=N)N)cc2)s1)C(=O)OC [Example 440, Methyl N^2-[2-{2-(4-amidinophenyl)-1,3,4-thiodiazol-5-ylthio}-acetyl]-N^3-(n-butyloxycarbonyl)-2,3-(S)-diaminopropionate HCl salt]
  IC50: < 10 µM
